In ChEMBL document CHEMBL1201862, “PubChem BioAssay data set” (2004):
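Each compound was tested at five concentrations against cells in 96-well plates for 48 hours. Abbreviation: GI50, concentration required for 50% inhibition of growth.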 The source made the active and inactive calls. No stated cut-off is given here; in the data, active = GI50 up to about 1.1 µM and inactive = higher.

Columns and labels:
Experiment in all cases: NCI tumour cell line growth inhibition, 48 h
[1] = test system: Malme-3M
[2] = test system: TK-10
[3] = test system: SW-620
[4] = test system: SNB-75
[5] = test system: HCT-116
[6] = test system: RXF 393
[7] = test system: LXFL 529
[8] = test system: OVCAR-8
[9] = test system: HCC 2998
[10] = test system: SK-MEL-5
[11] = test system: HT-29
[12] = test system: HCT-15
[13] = test system: NCI-H522
[14] = test system: RPMI-8226
[15] = test system: NCI-H226
[16] = test system: CAKI-1
[17] = test system: HOP-62
[18] = test system: 786-0
[19] = test system: COLO 205
[20] = test system: T47D

Row | Structure (SMILES) | GI50 [1] | GI50 [2] | GI50 [3] | GI50 [4] | GI50 [5] | GI50 [6] | GI50 [7] | GI50 [8] | GI50 [9] | GI50 [10] | GI50 [11] | GI50 [12] [µM] | GI50 [13] | GI50 [14] | GI50 [15] | GI50 [16] | GI50 [17] | GI50 [18] | GI50 [19] | GI50 [20]
1 | COC(=O)C(=O)C(C(C)=O)C(=O)NCc1ccccc1 (centres undefined) | > 100 µM (inactive) | > 100 µM (inactive) | 5.06 µM (inactive) | > 100 µM (inactive) | > 100 µM (inactive) | > 100 µM (inactive) | > 100 µM (inactive) | > 100 µM (inactive) | > 100 µM (inactive) | > 100 µM (inactive) | > 100 µM (inactive) | > 100 | > 100 µM (inactive) | > 100 µM (inactive) | > 100 µM (inactive) | > 100 µM (inactive) | > 100 µM (inactive) | > 100 µM (inactive) | > 100 µM (inactive) | 
2 | O=C(O)CNS(=O)(=O)c1ccc(NCc2ccccc2)cc1 | > 100 µM (inactive) | > 100 µM (inactive) | > 100 µM (inactive) | > 100 µM (inactive) | > 100 µM (inactive) | > 100 µM (inactive) | > 100 µM (inactive) | > 100 µM (inactive) | > 100 µM (inactive) | > 100 µM (inactive) | > 100 µM (inactive) | > 100 | > 100 µM (inactive) | > 100 µM (inactive) | > 100 µM (inactive) | > 100 µM (inactive) | > 100 µM (inactive) | > 100 µM (inactive) | > 100 µM (inactive) | 
3 | Cc1ccc(C(=O)N(C(C)C)C(C)C)cc1/N=N/N(C)C | 84.7 µM (inactive) | > 100 µM (inactive) | > 92.3 µM (inactive) |  | > 75.9 µM (inactive) |  | 31.2 µM (inactive) | > 100 µM (inactive) | > 100 µM (inactive) | > 100 µM (inactive) | 74.1 µM (inactive) | > 82.6 | 18.2 µM (inactive) | 33 µM (inactive) | > 100 µM (inactive) | > 100 µM (inactive) | > 100 µM (inactive) | > 100 µM (inactive) | > 100 µM (inactive) | 39.4 µM (inactive)
4 | Cc1cc(Cl)ccc1NC(=O)C(=O)Cc1occc(=O)c1O | > 100 µM (inactive) | > 100 µM (inactive) | > 100 µM (inactive) | > 100 µM (inactive) | > 100 µM (inactive) | > 100 µM (inactive) | > 100 µM (inactive) | > 100 µM (inactive) | > 100 µM (inactive) | > 100 µM (inactive) | > 100 µM (inactive) | > 100 | > 100 µM (inactive) | > 100 µM (inactive) | > 100 µM (inactive) | > 100 µM (inactive) | > 100 µM (inactive) | > 100 µM (inactive) | > 100 µM (inactive) | 
5 | COc1ccc2oc3c4c2c1CCC4CCC3=O (centres undefined) | > 100 µM (inactive) | 5.47 µM (inactive) | > 100 µM (inactive) | 28.1 µM (inactive) |  | 36.1 µM (inactive) | > 100 µM (inactive) | 59.4 µM (inactive) | > 100 µM (inactive) | > 100 µM (inactive) | > 100 µM (inactive) |  | 58.2 µM (inactive) | > 100 µM (inactive) |  |  | > 100 µM (inactive) | > 100 µM (inactive) | > 100 µM (inactive) | 
6 | COC(=O)CCC(NC(=S)N/N=C(\C)c1cnc2ccccc2n1)C(=O)OC (centres undefined) | 41.3 µM (inactive) | > 100 µM (inactive) | 20.8 µM (inactive) | 47.4 µM (inactive) | 18.3 µM (inactive) | 30.2 µM (inactive) | 29.9 µM (inactive) | 46.9 µM (inactive) | 32.1 µM (inactive) | 21.2 µM (inactive) | 14.2 µM (inactive) | 35.1 | 11.2 µM (inactive) | 11.1 µM (inactive) | 41.8 µM (inactive) |  | 45.7 µM (inactive) | 43.6 µM (inactive) | 2.55 µM (inactive) | 
7 | COc1ccc(/C=C\c2cc(OC)c3c(c2)OCO3)c(O)c1O | 13.4 µM (inactive) | 24.9 µM (inactive) | 8.3 µM (inactive) | 0.0256 µM (active) | 6.95 µM (inactive) | 3.94 µM (inactive) | 2.07 µM (inactive) | 5.53 µM (inactive) | 21.5 µM (inactive) | 2.3 µM (inactive) | 20.7 µM (inactive) | 11 | 1.7 µM (inactive) | 2.56 µM (inactive) | 16.1 µM (inactive) | 2.79 µM (inactive) | 7.59 µM (inactive) | 3.26 µM (inactive) | 21.2 µM (inactive) | 
8 | COc1ccc2nc(-c3ccc(OCc4ccccc4)cc3)ccc2c1 | > 100 µM (inactive) | > 100 µM (inactive) | > 100 µM (inactive) | > 100 µM (inactive) | > 100 µM (inactive) | > 100 µM (inactive) | > 100 µM (inactive) | > 100 µM (inactive) | > 100 µM (inactive) | > 100 µM (inactive) | > 100 µM (inactive) |  | > 100 µM (inactive) | > 100 µM (inactive) | > 100 µM (inactive) |  | > 100 µM (inactive) | > 100 µM (inactive) | > 100 µM (inactive) | 
9 | O=C(Cc1ccccc1)N/N=C(\C1=Nc2ccc([N+](=O)[O-])cc2NC1O)C(O)c1ccc([N+](=O)[O-])cc1 (centres undefined) | > 100 µM (inactive) | > 100 µM (inactive) | 80 µM (inactive) | > 100 µM (inactive) | > 100 µM (inactive) | > 100 µM (inactive) | 42.6 µM (inactive) | > 100 µM (inactive) | 99.5 µM (inactive) | 68.9 µM (inactive) | > 100 µM (inactive) | > 100 | 7.89 µM (inactive) | 44.4 µM (inactive) | > 100 µM (inactive) | > 100 µM (inactive) | > 100 µM (inactive) | > 100 µM (inactive) | 64.1 µM (inactive) | 
10 | CC1(c2ccc(F)cc2)C2C(=O)NC(=O)C1C(=O)NC2=O (centres undefined) | > 100 µM (inactive) | > 100 µM (inactive) | > 100 µM (inactive) | > 100 µM (inactive) |  | > 100 µM (inactive) | > 100 µM (inactive) | > 100 µM (inactive) | > 100 µM (inactive) | > 100 µM (inactive) | > 100 µM (inactive) | > 100 | > 100 µM (inactive) | > 100 µM (inactive) | > 100 µM (inactive) | > 100 µM (inactive) |  | > 100 µM (inactive) | > 100 µM (inactive) | 
11 | C#CCN(N=O)C(=O)NC(CCCCNC(=O)OCc1ccccc1)C(=O)OCc1ccccc1 (centres undefined) | 28.2 µM (inactive) | 27.7 µM (inactive) | 23.3 µM (inactive) | 33.5 µM (inactive) | 33.8 µM (inactive) | 46.7 µM (inactive) | 17 µM (inactive) | 17.4 µM (inactive) | 31.5 µM (inactive) |  | 21.2 µM (inactive) | 20.8 | 13.9 µM (inactive) | 18.7 µM (inactive) |  |  | > 100 µM (inactive) | 17.8 µM (inactive) | 28.5 µM (inactive) | 
12 | COc1ccccc1C(O)(c1ccccc1)C(O)(c1ccccc1)c1ccccc1OC (centres undefined) | > 100 µM (inactive) | > 100 µM (inactive) | > 100 µM (inactive) | 41.6 µM (inactive) | > 100 µM (inactive) | > 100 µM (inactive) | > 100 µM (inactive) | > 100 µM (inactive) | > 100 µM (inactive) | > 100 µM (inactive) | > 100 µM (inactive) | > 100 | > 100 µM (inactive) | > 24.4 µM (inactive) | > 100 µM (inactive) |  | > 100 µM (inactive) | > 100 µM (inactive) | > 100 µM (inactive) | 
13 | CCOP(=O)(OCC)C(C(=O)OC)C(=O)C(=O)Nc1c(C)cc(Br)cc1C (centres undefined) | > 100 µM (inactive) | > 100 µM (inactive) | > 100 µM (inactive) | > 100 µM (inactive) | > 100 µM (inactive) | > 100 µM (inactive) | > 100 µM (inactive) | > 100 µM (inactive) | > 100 µM (inactive) | > 100 µM (inactive) | > 100 µM (inactive) | > 100 | > 100 µM (inactive) | > 100 µM (inactive) | > 100 µM (inactive) | > 100 µM (inactive) | > 100 µM (inactive) | > 100 µM (inactive) | > 100 µM (inactive) | 
14 | Cc1c(C(=O)/C=C/c2ccco2)[n+]([O-])c2ccccc2[n+]1[O-] | > 100 µM (inactive) | > 100 µM (inactive) | > 100 µM (inactive) | > 100 µM (inactive) | > 100 µM (inactive) | > 100 µM (inactive) | > 100 µM (inactive) | > 100 µM (inactive) | > 100 µM (inactive) |  | > 100 µM (inactive) |  | 58.9 µM (inactive) | 41.8 µM (inactive) | > 100 µM (inactive) | > 100 µM (inactive) |  | > 100 µM (inactive) | > 100 µM (inactive) | 
